Assay results published in patent publication US7544708B2, “Azabicyclo derivatives as muscarinic receptor antagonists” (Ranbaxy Laboratories Limited, priority 2002, dated 2009).
Counter-ions that a name gives are not always drawn. Like-named read-outs stand apart in the source and are kept apart here.

What was measured:
[1] = biological target: T1, M2 muscarinic receptor subtype (rat heart) (Rattus norvegicus, UniProt P10980); assay: Radioligand binding assay, [3H]-N-methylscopolamine, M2
T1 construct: Submandibular glands and heart were isolated and placed in ice cold homogenising buffer; from tissue; host or cells: rat heart membranes
T1 sequence (P10980 1-466): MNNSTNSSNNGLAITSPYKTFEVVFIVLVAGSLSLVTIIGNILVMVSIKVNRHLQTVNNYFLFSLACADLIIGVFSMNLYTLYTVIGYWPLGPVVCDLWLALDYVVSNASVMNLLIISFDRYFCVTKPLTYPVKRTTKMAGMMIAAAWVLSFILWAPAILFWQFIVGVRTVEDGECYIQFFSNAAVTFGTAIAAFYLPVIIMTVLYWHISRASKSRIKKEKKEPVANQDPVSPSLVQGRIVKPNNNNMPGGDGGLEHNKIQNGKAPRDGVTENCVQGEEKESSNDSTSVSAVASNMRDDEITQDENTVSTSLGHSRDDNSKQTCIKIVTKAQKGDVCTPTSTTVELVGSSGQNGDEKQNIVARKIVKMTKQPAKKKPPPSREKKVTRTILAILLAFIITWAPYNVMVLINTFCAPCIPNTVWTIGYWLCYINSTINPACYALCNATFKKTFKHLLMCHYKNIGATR
Procedure: (§1) The membrane preparation was done with the following modifications: a low spin step of 500 g for 10 minutes at 4° C. was used; the buffer was 20 mM HEPES, 10 mM EDTA, at pH 7.4; the high speed spin was done at 40,000 g and the homogenate was passed through a filter gauge before any spinning.
(§2) Membrane preparation: Submandibular glands and heart were isolated and placed in ice cold homogenising buffer (HEPES 20 mM, 10 mM EDTA, pH 7.4) immediately after sacrifice. The tissues were homogenised in 10 volumes of homogenising buffer and the homogenate was filtered through two layers of wet gauze and filtrate was centrifuged at 500 g for 10 min. The supernatant was subsequently centrifuged at 40,000 g for 20 min. The pellet thus obtained was resuspended in same volume of assay buffer (HEPES 20 mM, EDTA 5 mM, pH 7.4) and were stored at −700C until the time of assay.
(§3) Ligand binding assay: The compounds were dissolved and diluted in DMSO. The membrane homogenates (150-250 μg protein) were incubated in 250 μl of assay buffer (HEPES 20 mM, pH 7.4) at 24-25° C. for 3 h. […] The incubation was terminated by vacuum filtration over GF/B fiber filters (Wallac). The filters were then washed with ice cold 50 mM Tris HCl buffer (pH 7.4). The filter mats were dried and bound radioactivity retained on filters was counted. The IC50 and Kd were estimated by using the non-linear curve fitting program using G Pad Prism software.

[2] = biological target: T2, M3 muscarinic receptor subtype (rat submandibular gland) (Rattus norvegicus, UniProt P08483); assay: Radioligand binding assay, [3H]-N-methylscopolamine, M3
T2 construct: Submandibular glands and heart were isolated and placed in ice cold homogenising buffer; from tissue; host or cells: rat submandibular gland membranes
T2 sequence (P08483 whole entry): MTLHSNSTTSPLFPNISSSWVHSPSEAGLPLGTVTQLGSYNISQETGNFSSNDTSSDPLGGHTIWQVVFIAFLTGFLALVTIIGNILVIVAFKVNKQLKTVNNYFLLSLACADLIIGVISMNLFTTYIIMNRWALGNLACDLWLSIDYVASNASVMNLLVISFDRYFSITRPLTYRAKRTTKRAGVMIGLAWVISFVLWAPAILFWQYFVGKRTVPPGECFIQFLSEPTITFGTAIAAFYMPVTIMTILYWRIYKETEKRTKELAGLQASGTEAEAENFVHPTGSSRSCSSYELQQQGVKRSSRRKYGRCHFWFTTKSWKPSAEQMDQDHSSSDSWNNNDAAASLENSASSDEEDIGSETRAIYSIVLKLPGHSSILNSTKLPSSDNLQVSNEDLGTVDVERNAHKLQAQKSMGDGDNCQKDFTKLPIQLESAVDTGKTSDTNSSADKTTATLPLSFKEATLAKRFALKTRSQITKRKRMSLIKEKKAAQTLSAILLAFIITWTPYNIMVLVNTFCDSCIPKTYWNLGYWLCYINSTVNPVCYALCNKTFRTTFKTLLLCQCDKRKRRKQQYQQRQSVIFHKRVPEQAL
Procedure: as §1, §2, §3

[3] = test system: carbachol evoked changes on bladder pressure, heart rate and salivation; assay: In vivo experiments using anesthetized rabbit; details: for ID50 Bladder Pressure / ID50 Heart Rate Response / ID50 Salivary Response: carbachol 1.5 μg/kg intrarterial, i.v. test compound; for Fold Selectivity Bladder versus Heart Rate / Fold Selectivity Bladder versus Salivary: from ID50 values
Procedure: In vivo experiments using anesthetized rabbit: The effect of test substances was studied on carbachol evoked changes on bladder pressure, heart rate and salivation. Male rabbits weighing 1.2-3 kg were anaesthetized with urethane (1.5 g/kg), and administered as a slow intravenous infusion through the marginal ear vein. The tracheae were cannulated to maintain airway patency. Blood pressure was recorded from the femoral artery by means of a Statham P10 EZ pressure transducer connected to a Grass model 7D polygraph. The heart rate was monitored by a tachograph triggered by the pulse wave of blood pressure. The other femoral artery was cannulated for the administration of carbachol. Test compound and saline were infused intravenously via the femoral vein.
The bladder was exposed through a midline laparotomy and both the ureters were identified, carefully separated and ligated. The ureters were incised proximally to allow free flow of urine from the kidney to the exterior. Bladder neck was gently held and the urethra was traced and separated from the adjoining tissues. PE canula was introduced into the bladder and ligated. The bladder was drained and subsequently filled with 15 ml of warm saline (37° C.). The other end of the intravesical catheter was connected to the Grass model 7D polygraph through a Statham P10 EZ pressure transducer to monitor the bladder pressure. Care was taken to keep the exposed area moist and warm. A period of 30-60 min was allowed for stabilization of parameters subsequent to surgery. Salivation response was assessed by placing preweighed absorbent cotton gauze in the buccal cavity for 2 minutes after carbachol administration.
At least two stable responses were obtained. These responses were considered as 100%. Subsequently, effect of increasing dose of test compound or vehicle (i.v,12 to 15 min before carbachol challenge) was studied.
The change in bladder pressure, salivation and agonist induced bradycardia were expressed as % change from pretreatment control.

[4] = Receptor Binding Assay M2 pKi, [3H]-N-methylscopolamine, rat heart membranes
[5] = Receptor Binding Assay M3 Pki, [3H]-N-methylscopolamine, rat submandibular gland membranes

SMILES | Ki ([1]; Receptor Binding Assay M2 pKi) | Ki ([2]; Receptor Binding Assay M3 Pki) | further results
O=C(NCC1C2CNCC21)C(O)(c1ccccc1)C1CCC(F)C1 (mixture of isomers) [Compound 12, (2R,2S) (1α,5α,6α)-N-[3-azabicyclo[3.1.0]hexyl-6-(aminomethyl)-yl]-2-hydroxy-2-(3-fluorocyclopentyl)-2-phenyl acetamide] | 25.1 nM | 0.912 nM | 
O=C(NC[C@H]1[C@@H]2CNC[C@@H]21)[C@@](O)(c1ccccc1)C1CCCC1 [Compound 5, (2S)-(1α,5α,6α)-N-[3-azabicyclo[3.1.0]hexyl-6-(aminomethyl)-yl]-2-hydroxy-2-cyclopentyl 2-phenyl acetamide] | 158 nM | 31.6 nM | 
O=C(NCC1C2CNCC21)C(O)(c1ccccc1)C1CCC1 [Compound 10, (2R,2S) (1α,5α,6α)-N-[3-azabicyclo[3.1.0]hexyl-6-(aminomethyl)-yl]-2-hydroxy-2-cyclobutyl-2-phenyl acetamide tartarate salt] | 6.31 nM | 0.316 nM | 
O=C(NC[C@H]1[C@@H]2CNC[C@@H]21)[C@@](O)(c1ccccc1)C1CCCC1 [Compound 6, (2S)-(1α,5α,6α)-N-[3-azabicyclo[3.1.0]hexyl-6-(aminomethyl)-yl]-2-hydroxy-2-cyclopentyl 2-phenyl acetamide hydrochloride salt] | 77.6 nM | 13.2 nM | 
O=C(NC[C@H]1[C@@H]2CNC[C@@H]21)C(O)(c1ccccc1)C1CCCCCC1 (mixture of isomers) [Compound 8, (2R,2S) (1α,5α,6α)-N-[3-azabicyclo[3.1.0]hexyl-6-(aminomethyl)-yl]-2-hydroxy-2-cycloheptyl-2-phenyl acetamide] | 44.7 nM | 1.48 nM | 
O=C(NC[C@H]1[C@@H]2CNC[C@@H]21)C(O)(c1ccccc1)c1ccccc1 [Compound 16, (2R,2S) (1α,5α,6α)-N-[3-azabicyclo[3.1.0]hexyl-6-(aminomethyl)-yl]-2-hydroxy-2,2-diphenyl acetamide] |  |  | Ki [1, 4]: 11.2 nM; Ki [2, 5]: 0.389 nM
O=C(NC[C@H]1[C@@H]2CNC[C@@H]21)[C@](O)(c1ccccc1)C1CCC(F)(F)C1 (single isomer, unassigned) [Compound 11] | 39.8 nM | 1.26 nM | 
O=C(NC[C@H]1[C@@H]2CNC[C@@H]21)C(O)(c1ccccc1)C1CCCC1 (mixture of isomers) [Compound 1, (2R,2S) (1α,5α,6α)-N-[3-azabicyclo[3.1.0]hexyl-6-(aminomethyl)-yl]-2-hydroxy-2-cyclopentyl-2-phenyl acetamide] | 12 nM | 0.525 nM | melting point: 149 to 151 °C
O=C(NCC1C2CNCC21)C(O)(c1ccccc1)C1CCC(F)(F)C1 (mixture of isomers) [Compound 13, (2R,2S) (1α,5α,6α)-N-[3-azabicyclo[3.1.0]hexyl-6-(aminomethyl)-yl]-2-hydroxy-2-(3,3-difluorocyclopentyl)-2-phenyl acetamide] | 50.1 nM | 2 nM | 
CN(C[C@H]1[C@@H]2CNC[C@@H]21)C(=O)C(O)(c1ccccc1)C1CCCC1 (mixture of isomers) [Compound 18, (2R,2S) (1α,5α,6α)-N-[3-azabicyclo[3.1.0]hex-6-ylmethyl)-2-cyclopentyl-2-hydroxy-N-methyl-2-phenyl acetamide] | 2.75 nM | 0.38 nM | 
O=C(NC[C@H]1[C@@H]2CNC[C@@H]21)C(O)(c1ccccc1)C1CCCCC1 (mixture of isomers) [Compound 17, (2R,2S) (1α,5α,6α)-N-[3-azabicyclo[3.1.0]hexyl-6-(aminomethyl)-yl]-2-hydroxy-2-cyclohexyl-2-phenyl acetamide] | 50.1 nM | 1.35 nM | 
COC(C(=O)NC[C@H]1[C@@H]2CNC[C@@H]21)(c1ccccc1)C1CCCC1 (mixture of isomers) [Compound 7, (2R,2S) (1α,5α,6α)-N-[3-azabicyclo[3.1.0]hexyl-6-(aminomethyl)-yl]-2-methoxy-2-cyclopentyl-2-phenyl acetamide] |  |  | Ki ([1]; [3H]-N-methylscopolamine, rat heart membranes, read-out: Receptor Binding Assay M2 pKi (converted)): 25.1 nM; Ki ([2]; [3H]-N-methylscopolamine, rat submandibular gland membranes, read-out: Receptor Binding Assay M3 Pki (converted)): 2.45 nM
O=C(NC[C@H]1[C@@H]2CNC[C@@H]21)C(O)(c1ccccc1)C1CCCC1 (mixture of isomers) [Compound 2, (2R,2S) (1α,5α,6α)-N-[3-azabicyclo[3.1.0]hexyl-6-(aminomethyl)-yl]-2-hydroxy-2-cyclopentyl-2-phenyl acetamide hydrochloride salt] | 4.37 nM | 0.316 nM | ID50 Bladder Pressure [3]: 3.93 ± 1.1 μg/kg, i.v; ID50 Heart Rate Response [3]: 21.13 ± 4.47 μg/kg, i.v; ID50 Salivary Response [3]: 7.67 ± 1.19 μg/kg, i.v; Fold Selectivity Bladder versus Heart Rate [3]: 12.6 ± 5.7; Fold Selectivity Bladder versus Salivary [3]: 3.08 ± 0.94
O=C(NC[C@H]1[C@@H]2CNC[C@@H]21)[C@](O)(c1ccccc1)C1CCCC1 [Compound 4, (2R)-(1α,5α,6α)-N-[3-azabicyclo[3.1.0]hexyl-6-(aminomethyl)-yl]-2-hydroxy-2-cyclopentyl 2-phenyl acetamide hydrochloride salt] | 3.72 nM | 0.224 nM | ID50 Bladder Pressure [3]: 2.14 ± 0.42 μg/kg, i.v; ID50 Heart Rate Response [3]: 5.65 ± 0.86 μg/kg, i.v; ID50 Salivary Response [3]: 4.66 ± 0.56 μg/kg, i.v; Fold Selectivity Bladder versus Heart Rate [3]: 3.43 ± 1.02; Fold Selectivity Bladder versus Salivary [3]: 2.37 ± 0.22
O=C(NCC1C2CNCC21)C(O)(c1ccccc1)C1CCC(F)(F)C1 (mixture of isomers) [Compound 14, (2R,2S) (1α,5α,6α)-N-[3-azabicyclo[3.1.0]hexyl-6-(aminomethyl)-yl]-2-hydroxy-2-(3,3-difluorocyclopentyl)-2-phenyl acetamide tartarate salt] | 72.4 nM | 1.35 nM | 
O=C(NCC1C2CNCC21)C(O)(c1ccccc1)C1CCC1 [Compound 9, (2R,2S) (1α,5α,6α)-N-[3-azabicyclo[3.1.0]hexyl-6-(aminomethyl)-yl]-2-hydroxy-2-cyclobutyl-2-phenyl acetamide] | 9.55 nM | 1.26 nM | 
O=C(OC[C@H]1[C@@H]2CNC[C@@H]21)C(O)(c1ccccc1)c1ccccc1 [Compound 15, (2R,2S) (1α,5α,6α)-N-[3-azabicyclo[3.1.0]hexyl-6-(aminomethyl)-yl]-2-hydroxy-2,2-diphenyl acetate] |  |  | Ki [1, 4]: 0.219 nM; Ki [2, 5]: 0.0661 nM
Cc1ccc(O)c([C@H](CCN(C(C)C)C(C)C)c2ccccc2)c1 [Tolterodine, reference compound] |  |  | ID50 Bladder Pressure [3]: 25.84 ± 4.24 μg/kg, i.v; ID50 Heart Rate Response [3]: 32.54 ± 5.77 μg/kg, i.v; ID50 Salivary Response [3]: 32.5 ± 10.02 μg/kg, i.v
